Data from BindingDB's records for doi:10.1016/s0960-894x(98)00187-5 (Novartis Pharma, 1999).

Molecular target: Somatostatin receptor type 2 (Rattus norvegicus) (UniProt P30680)
Assay: Binding affinity for SSTR2 receptors of rat cortex membranes was determined by using [125I][Tyr3]-octreotide radioligand

Sequence of Somatostatin receptor type 2 (Rattus norvegicus) (P30680 whole entry, looked up): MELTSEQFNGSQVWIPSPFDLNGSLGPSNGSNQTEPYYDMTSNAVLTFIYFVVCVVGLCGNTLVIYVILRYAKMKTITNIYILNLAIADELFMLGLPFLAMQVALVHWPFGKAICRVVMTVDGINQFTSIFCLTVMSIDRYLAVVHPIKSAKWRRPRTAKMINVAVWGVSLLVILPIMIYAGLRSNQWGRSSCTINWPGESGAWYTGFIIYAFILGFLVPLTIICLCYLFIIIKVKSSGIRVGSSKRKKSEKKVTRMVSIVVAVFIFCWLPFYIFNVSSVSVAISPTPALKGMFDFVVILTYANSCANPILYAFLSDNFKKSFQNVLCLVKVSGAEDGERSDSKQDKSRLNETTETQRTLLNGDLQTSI

C[C@@H](O)[C@@H]1NC(=O)[C@H](CCCCN)NC(=O)[C@@H](Cc2c[nH]c3ccccc23)NC(=O)[C@H](Cc2ccccc2)NC(=O)[C@@H](NC(=O)[C@@H](Cc2ccccc2)NC(=O)CN2CCN(CC(=O)O)CCN(CC(=O)O)CCN(CC(=O)O)CC2)CSSC[C@@H](C(=O)N[C@H](CO)[C@@H](C)O)NC1=O gave a Ki of 3.2 nM.
